Laboratory results: patent publication US20260284009A1, “COMPOUNDS FOR NOS-RELATED CANCERS AND METHODS OF USE” (YISSUM RESEARCH DEVELOPMENT COMPANY OF THE HEBREW …, priority 2023, published 2026)

Tests used:
Format in all cases: cell-based, human
U87-MG cells [1] = assay: Clonogenic survival of U87-MG cells; details: 100 μM 7-NI, 500 or 1000 μM L-NIL, combinations 100 μM 7-NI + 500 or 1000 μM L-NIL
Source text: (§1) Data are presented as mean±SEM.
as §1

U87-MG cells [2] = assay: Nitrate and nitrite levels in U87-MG cells; details: 100 μM 7-NI, 500 or 1000 μM L-NIL, combinations of both, n=3
Experimental: In FIGS. 10A-10B, data are presented as mean±SEM. Statistical significance was determined using a One-way ANOVA with Bonferroni's multiple comparisons tests. *P<0.05, **P<0.01, and ns=not significant.
FIG. 10A: Quantitative analysis of nitrate and nitrite levels in U87-MG cells following administration of 0.1% DMSO (“Vehicle”) (n=3) or 100 μM 7-NI (“7-NI”) (n=3).
FIG. 10B: Quantitative analysis of nitrate and nitrite levels in U87-MG cells following administration of control (n=3), 500 μM L-NIL (“L-NIL 500”) (n=3), or 1000 μM L-NIL (“L-NIL 1000”) (n=3).
Data are expressed as the mean±SEM.

U87-MG cells [3] = assay: Western blots of 3-Ntyr, CD-70, iNOS and nNOS in U87-MG cells; details: western blot, 100 μM 7-NI, 500 or 1000 μM L-NIL, n=3
Experimental: In FIGS. 12A-12D, for quantitative analysis data, all individual data series are presented as biological replicates (n=3) for all groups. Data are expressed as the mean±SEM.
FIG. 12A: Representative western blots of 3-Ntyr and β-actin levels in U87-MG cells following administration of the control, 0.1% DMSO (“Vehicle”), or 100 μM 7-NI (“7-NI”).
FIG. 12B: Quantitative analysis of 3-Ntyr levels for the experiments of FIG. 12A.
FIG. 12C: Representative western blots of 3-Ntyr and β-actin levels in U87-MG cells following administration of the control, 500 μM L-NIL (“L-NIL 500”), or 1000 μM L-NIL (“L-NIL 1000”).
FIG. 12D: Quantitative analysis of 3-Ntyr levels for the experiments of FIG. 12C.
In FIGS. 13A-13B, for quantitative analysis data, all individual data series are presented as biological replicates (n=3) for all groups. Data are expressed as the mean±SEM.
FIG. 13A: Representative western blots of CD-70 and β-actin levels in U87-MG cells following administration of the control, 0.1% DMSO (“Vehicle”), 100 μM 7-NI (“7-NI”), 500 μM L-NIL (“L-NIL 500”), or 1000 μM L-NIL (“L-NIL 1000”).
FIG. 13B: Quantitative analysis of CD-70 levels for the experiments of FIG. 13A.
In FIGS. 14A-14B, for quantitative analysis data, all individual data series are presented as biological replicates (n=3) for all groups. Data are expressed as the mean±SEM.
FIG. 14A: Representative western blots of iNOS and β-actin levels in U87-MG cells following administration of the control, 0.1% DMSO (“Vehicle”), 100 μM 7-NI (“7-NI”), 500 μM L-NIL (“L-NIL 500”), or 1000 μM L-NIL (“L-NIL 1000”).
FIG. 14B: Quantitative analysis of iNOS levels for the experiments of FIG. 14A.
In FIGS. 15A-15B, for quantitative analysis data, all individual data series are presented as biological replicates (n=3) for all groups. Data are expressed as the mean±SEM.
FIG. 15A: Representative western blots of nNOS and β-actin levels in U87-MG cells following administration of the control, 0.1% DMSO (“Vehicle”), 100 μM 7-NI (“7-NI”), 500 μM L-NIL (“L-NIL 500”), or 1000 μM L-NIL (“L-NIL 1000”).
FIG. 15B: Quantitative analysis of nNOS levels for the experiments of FIG. 15A.

U87-MG cells [4] = assay: Clonogenic survival (colony) assay in U87-MG cells
Experimental: (§2) Human glioblastoma U87-MG cells were obtained from the American Type Culture Collection (ATCC) and maintained in Dulbecco's modified Eagle's Medium (DMEM) and Ham's F-12 (1:1) supplemented with 10% fetal bovine serum, 2 mM L-glutamine, and 100 U/ml penicillin-G/[…] streptomycin in the humidified atmosphere (37° C., 5% CO2). Cells were plated onto 25 cm^2 and 75 cm^2 at a density of 7.0×10^5 and 2.1×10^6 cells/cm^2 respectively for Western blotting (WB) and 1×10^5 for immunofluorescence. The U87-MG cells were treated with 100 μM 7-nitroindazole (7-NI) for 24 hr.
Cells were seeded into 6-well plates at concentrations of 500/well or 1000/well in triplicates. After 24 hours, 7-NI was added, or cells were transiently transfected with siRNA-nNOS, as described above, before changing to serum-containing medium. […] Colonies were stained with crystal violet, washed with PBS, air-dried, and imaged. The colonies were visualized using ImageJ software. Cell colonies of greater than 50 cells were identified and counted.
(§3) In a particular example, in vitro and in vivo experiments were performed using U87-MG cells and U87-MG-xenografted mice, respectively, as a glioblastoma model.

U87-MG cells [5] = assay: Nitrite (Griess) assay in U87-MG cells
Experimental: as §2, §3

SMILES | clonogenic survival (U87-MG cells [1]) | nitrate and nitrite levels (U87-MG cells [2]) | 3-Ntyr (nitrotyrosine) levels (U87-MG cells [3]) | cluster of differentiation 70 (CD-70) levels (U87-MG cells [3]) | inducible nitric oxide synthase (iNOS) levels (U87-MG cells [3]) | neuronal nitric oxide synthase (nNOS) levels (U87-MG cells [3]) | colony growth (U87-MG cells [4]; 7-NI, vs control and negative control (0.1% DMSO)) | nitrite and nitrate content (Griess assay) (U87-MG cells [5]; 7-NI) | colony growth (U87-MG cells [4]; higher dose of L-NIL, both experiments, vs control) | colony growth (U87-MG cells [4]; lower dose of L-NIL, one experiment (FIG. 9), vs control) | colony growth (U87-MG cells [4]; lower dose of L-NIL, second experiment (FIGS. 8C-8D), reduced vs control) | nitrite and nitrate content (Griess assay) (U87-MG cells [5]; higher dose of L-NIL, one experiment (FIG. 10B), vs control) | nitrite and nitrate content (Griess assay) (U87-MG cells [5]; higher dose of L-NIL, second experiment (FIG. 11), reduced vs control) | nitrite and nitrate content (Griess assay) (U87-MG cells [5]; lower dose of L-NIL, one experiment (FIG. 11), vs control) | nitrite and nitrate content (Griess assay) (U87-MG cells [5]; lower dose of L-NIL, second experiment (FIG. 10B), reduced vs control)
O=[N+]([O-])c1cccc2cn[nH]c12 [7-NI, 7-nitroindazole] | significant decrease | significant decrease | significant decrease | did not lead to significant changes | did not lead to significant changes | did not lead to significant changes | significantly impacted | dramatic reduction | – | – | – | – | – | – | –
CC(=N)NCCCC[C@H](N)C(=O)O [L-NIL, N^6-(1-iminoethyl)-L-lysine] | significant decrease | significant decrease | did not result in a significant decrease | did not lead to significant changes | did not lead to significant changes | did not lead to significant changes | – | – | significant decrease | significantly reduced | not statistically significant | significantly reduced | not statistically significant | significantly reduced | not statistically significant
